Test results published in patent US8614237B2, “Benzofuran-4,5-diones as selective peptide deformylase inhibitors” (Sloan-Kettering Institute for Cancer Research, priority 2009, dated 2013).
Each block holds one compound with its values, some of them ahead of it.

Columns and labels:
[1] = target: T1, HsPDF (Homo sapiens, UniProt Q9HBH1); assay: FLUO functional assay (fluorescamine, substrate fMAHA); assay type: biochemical; conditions: 0.5 μM HsPDF, upper limit 10 μM compound
T1 construct: A 63 amino acid N-terminally truncated human peptide deformylase (HsPDF); 6His (C); made in house; host or cells: E. coli BL21 (DE3), co-transformed with the GroES/EL chaperone plasmid
T1 sequence (Q9HBH1 64-243 limits assumed): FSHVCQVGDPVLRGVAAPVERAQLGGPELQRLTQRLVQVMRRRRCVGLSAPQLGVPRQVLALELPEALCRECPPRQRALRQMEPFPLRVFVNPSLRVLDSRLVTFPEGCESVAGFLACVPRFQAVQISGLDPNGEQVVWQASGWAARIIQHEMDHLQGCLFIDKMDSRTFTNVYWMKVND
Procedure: High controls consisted of 1% DMSO (v/v). […] The deformylation reaction mixture was incubated for one hour at room temperature. A separate set of plates containing 3 μL of fluorescamine at 1 mg/mL in 100% DMSO was prepared for the labeling step. Then, 17 μL of the reaction mixture from the original set of plates was transferred to the plates containing the fluorescamine solution for the labeling step. The readout was performed on a Perkin Elmer VICTOR^3 V™ Multi label counter, using an excitation wavelength of 355 nm, and an emission wavelength of 460 nm. […] Compounds inducing a variation of fluorescence greater than 20% were flagged as optically active compounds.
High controls consisted of 1% DMSO (v/v). […] The deformylation reaction mixture was incubated for one hour at room temperature. A separate set of plates containing 3 μL of fluorescamine at 1 mg/mL in 100% DMSO was prepared for the labeling step. Then, 17 μL of the reaction mixture from the original set of plates was transferred to the plates containing the fluorescamine solution for the labeling step. The readout was performed on a Perkin Elmer VICTOR3 V™ Multi label counter, using an excitation wavelength of 355 nm, and an emission wavelength of 460 nm.

[2] = tested on: panel of eight cancer cell lines; assay: Cytotoxicity profiling of 26 second generation derivatives (Alamar Blue viability assay, nuclei count); assay type: cell-based, human
Procedure: Cytotoxicity profiling for the 26 newly synthesized benzofuran-4,5-diones derivatives was performed on a panel of eight cancer cell lines.
The cell lines HL-60 (human acute promyelocytic leukemia), Jurkat (human acute T cell leukemia), Molt3 (acute lymphoblastic leukemia), CWR22 (prostate carcinoma), K562 (human chronic myeloid leukemia lymphoblasts), and Y79 (human retinoblastoma) were obtained from the ATCC, and cultured following ATCC recommendations. The cell line HL-60/RV+ (a P-glycoprotein-overexpressing multi-drug resistant HL-60 variant selected by continuous exposure to vincristine) was described elsewhere (Weisburg J H, Roepe P D, Dzekunov S, Scheinberg D A: Intracellular pH and multidrug resistance regulate complement-mediated cytotoxicity of nucleated human cells. J Biol Chem 1999; 274:10877-10888). The cell line ALL-3 (acute lymphoblastic leukemia isolated from a patient treated at MSKCC and characterized as Philadelphia chromosome positive) was obtained from Dr. Mark Frattini (MSKCC). The viability assay we used in this study is based on the dye resazurin and commercially sold as Alamar Blue (O'Brien J, Wilson I, Orton T, Pognan F: Investigation of the Alamar Blue (resazurin) fluorescent dye for the assessment of mammalian cell cytotoxicity. Eur J Biochem 2000; 267:5421-5426). Cells were added in 45 μL medium to the pre-plated compounds in 5 μL of 1% DMSO (v/v). After 72 h incubation was added 5 μL Alamar Blue. […] Plates were then fixed and nuclei were stained using Hoechst for the nuclear count proliferation assay. Imaging for Hoechst staining of nuclei count were acquired with an IN Cell Analyzer 2000 epifluorescence automated microscope ([…]) (GE Healthcare, Piscataway, N.J.) equipped with a 4× objective, using D360/40 excitation filter (360 nm excitation peak; +/−40 nm bandpass), HQ535/50 emission filter (535 nm emission peak; +/−50 nm bandpass) and Q505LP dichroic, and exposing fields for 200 milliseconds in the blue channel. Image analysis was conducted with the IN Cell Developer 1.7 software (GE Healthcare) using custom-developed analysis modules. The analysis module used for nuclei count performs object segmentation in the blue channel to automatically define and count the number of nuclei. Data is reported as the sum of imaged nuclei.
In addition of the Alamar Blue viability assay readout, for the adherent cell lines of this panel (CWR22 and Meso47) we performed a direct nuclei count to assess the effect of the novel derivatives on cell proliferation.

[3] = target: T2, HsPDF (Homo sapiens, UniProt Q9HBH1); assay: HsPDF IC50
T2 construct: A 63 amino acid N-terminally truncated human peptide deformylase (HsPDF); 6His (C); made in house; host or cells: E. coli BL21 (DE3), co-transformed with the GroES/EL chaperone plasmid
Description: Table printed on a drawing sheet, Figure 7
Head of the field: HsPDF IC50
The patent's description of the figure: FIG. 7. Cytotoxicity profiling for the thirty-three (33) derivatives of benzofuran-4,5-diones toward […]. The IC50 in μM for each compound toward each cell line is summarized as a heat map.
Where the first naming reader finds the target: head: HsPDF IC50

[4] = tested on: EcPDF
Procedure: Head of the field: EcPDF %I 10uM
(§4) Specificity profiling of the derivatives of benzofuran-4,5-diones.
Where the first naming reader finds the target: head: EcPDF %I 10uM

[5] = tested on: APN; assay: APN %I 100uM
Procedure: (§1) Table printed on a drawing sheet, Figure 5
Head of the field: APN %I 100uM
(§2) Footnotes: -26 124 % inhibition
(§3) The patent's description of the figure: FIG. 5.
Where the first naming reader finds the target: head: APN %I 100uM

[6] = tested on: EcPDF; remark: listed apart in the source
Procedure: Head of the field: EcPDF %I 100uM
as §4
Where the first naming reader finds the target: head: EcPDF %I 100uM

[7] = target: T1, HsPDF; assay: FP binding assay (fluorescence polarization, probe SKI 267088), specificity profiling and dose response; conditions: for activity toward HsPDF, FP assay: specificity profiling / dose response
Procedure: Specificity profiling was performed on the newly synthesized benzofuran-4,5-diones using the aforementioned FP profiling method (Antczak et al., J. Biomol. Screen 2008, 13, 285-294).
Compounds or high/low controls were added to the wells at a volume of 2 μL. […] High controls consisted of 1% DMSO (v/v). MBP-HsPDF or the metalloprotease to be tested was diluted in the assay buffer (25 mM Hepes, 50 mM NaCl, 0.005% Tween 20, pH 7.5), and 10 μL where added to the 384-well microplates (Low Volume Round Bottom NBS Treated, Corning) to achieve a final concentration of 1 μM. After addition of MBP-HsPDF to the tested compounds, the 384-well microplates were preincubated for one hour at room temperature. Then 8 μL of the probe SKI 267088 in solution in assay buffer was added to the wells at a final concentration of 5 nM. After one hour incubation at room temperature, the fluorescence polarization was read using the Amersham LEADseeker™ Multimodality Imaging System equipped with Cy3 excitation/emission filters and Cy3 FP epi-mirror. Quench tests were performed in duplicate by measuring the fluorescence polarization of wells containing the probe, pre- and post-addition of the compounds at 100 μM.
In each assay, the signal inhibition induced by the compounds was expressed as a percentage compared to high and low controls located on the same plate, as defined as % Inhibition=(high control average−read value)/(high control average−low control average)×100. The dose response was assessed in duplicate and using 12 point doubling dilutions with 100 μM compound concentration as the upper limit. The dose response curve for each set of data was fitted separately, and the two IC50 values obtained were averaged.

[8] = tested on: MMP-1; assay: MMP-1 %I 100uM
Procedure: as §1
Head of the field: MMP-1 %I 100uM
as §2, §3
Where the first naming reader finds the target: head: MMP-1 %I 100uM

[9] = tested on: panel of cancer cell lines; assay: Cytotoxicity assay (Alamar Blue), primary hits and first generation derivatives; assay type: cell-based, human; conditions: first generation, panel of nine cancer cell lines
Procedure: Cytotoxicity assays were performed in order to profile the thirty-three newly synthesized benzofuran-4,5-dione derivatives on a panel of nine cancer cell lines. A heat map summarizes the calculated IC50s ([…]). Twelve out of thirteen derivatives potent toward HsPDF were also cytotoxic toward several cancer cell lines (FIG. 7).
The cell lines HL-60 (human acute promyelocytic leukemia), Jurkat (human acute T cell leukemia), Molt3 (acute lymphoblastic leukemia), CWR22 (prostate carcinoma), HEK293 (human embryonic kidney), K562 (human chronic myeloid leukemia lymphoblasts), Y79 (human retinoblastoma) were obtained from the ATCC, and cultured following ATCC recommendations. The cell line NCEB-1 (human non-hodgkin lymphoma) was obtained from Dr. O'Connor (Sloan-Kettering Institute). The cell line HL-60/RV+ (a P-glycoprotein-overexpressing multi-drug resistant HL-60 variant selected by continuous exposure to vincristine) was described elsewhere (Weisburg et al., J. Biol. Chem. 1999, 274, 10877-10888). The cell line ALL-3 (acute lymphoblastic leukemia isolated from a patient treated at MSKCC and characterized as Philadelphia chromosome positive) was obtained from Dr. Mark Frattini (MSKCC). The assay used for the cytotoxicity studies is based on the dye resazurin and commercially sold as Alamar Blue (O'Brien et al., Eur. J. Biochem. 2000, 267, 5421-5426). […]

[10] = In vivo toxicity of benzofuran-4,5-diones; conditions: i.p. twice a day for four days, 1 to 10 mg/kg, monitored 14 days
Procedure: Lead compound SKC-BF-13 and another newly synthesized derivative SKC-BF-02 were selected in order to assess the in vivo toxicity of benzofuran-4,5-diones. Three mice per group were treated with BF-13 at three doses (i.e., 1, 5 and 10 mg/kg) or with SKC-BF-02 at two doses (i.e., 1 and 10 mg/kg). A control group of two mice were treated with the vehicle (i.e., 20% DMSO v/v). Mice were treated twice a day for four days via intraperitoneal administration. Their weight was monitored along with any other signs of toxicity for fourteen days.
ICR/SCID male mice about three weeks old were used in this study. Three mice per group were treated with BF-13 at three doses (i.e., 1, 5 and 10 mg/kg) or with SKC-BF-02 at two doses (i.e., 1 and 10 mg/kg). A control group of two mice were treated with the vehicle (20% DMSO v/v). Mice were treated twice a day for four days via intraperitoneal administration. Their weight was monitored as well as any other sign of toxicity for 14 days.
SKI 396848 (SKC-BF-12) and SKI 396840 (SKC-BF-02) were synthesized during the first round of exploratory chemistry to assess the in vivo toxicity of benzofuran-4,5-diones (as shown in FIG. 8). Three ICR/SCID male mice per group were treated with SKI 396848 at three doses: 1, 5 and 10 mg/kg or with SKI 396840 at two doses: 1 and 10 mg/kg. A control group of two mice was treated with the vehicle (20% DMSO v/v). Mice were treated twice a day for four days i.p. Their weight was monitored as well as any other sign of toxicity for 14 days. One treated mouse per group was evaluated by a pathologist.

IC50 [1]: 0.68 µM
SMILES: O=C(O)COc1ccc(C(=O)c2coc3c2C(=O)C(=O)C(Br)=C3Br)cc1 [SKI 417520, 2-(4-(6,7-dibromo-4,5-dioxo-4,5-dihydrobenzofuran-3-carbonyl)phenoxy)acetic acid]
activity against the cell lines of the panel, second generation [2]: not active toward most of the cell lines tested

IC50 [1]: 0.62 µM
SMILES: O=C(O)COc1ccc(C(=O)c2coc3c2C(=O)C(=O)C(Cl)=C3Cl)cc1 [SKI 417521, 2-(4-(6,7-dichloro-4,5-dioxo-4,5-dihydrobenzofuran-3-carbonyl)phenoxy)acetic acid]
activity against the cell lines of the panel, second generation [2]: not active toward most of the cell lines tested

SMILES: O=C1C(=O)c2c(C(=O)c3ccccc3)coc2C(Cl)=C1Cl [SKC-BF-09, 3-Benzoyl-6,7-dichloro-benzofuran-4,5-dione]
IC50 [3]: 45 µM
EcPDF %I 10uM [4]: 43 %I

SMILES: COc1ccc(C(=O)c2coc3c2C(=O)C(=O)c2ccccc2-3)cc1 [SKC-NF-01, 3-(4-Methoxy-benzoyl)-naphtho[1,2-b]furan-4,5-dione]
APN %I 100uM [5]: 22 %I
EcPDF %I 100uM [6]: 23 %I
activity toward HsPDF, FP assay [7]: inactive
MMP-1 %I 100uM [8]: 27 %I
EcPDF %I 10uM [4]: 30 %I

SMILES: COc1ccc(C(=O)c2coc3c2C(=O)C(=O)C(Cl)=C3Cl)cc1OC [SKC-BF-10, 6,7-Dichloro-3-(3,4-dimethoxy-benzoyl)-benzofuran-4,5-dione]
cytotoxicity toward cancer cell lines [9]: not very active toward any cancer cell line tested
activity toward HsPDF, FP assay [7]: potent HsPDF inhibitor
MMP-1 %I 100uM [8]: 46 %I
EcPDF %I 10uM [4]: 24 %I

SMILES: COc1ccc(C(=O)c2coc3c2C(=O)C(=O)C=C3)cc1 [SKC-BF-02, 3-(4-Methoxy-benzoyl)-benzofuran-4,5-dione]
signs of toxicity in vivo (weight and other signs) [10]: none of the treatments induced any sign of toxicity
signs of toxicity in vivo (weight and other signs) ([10]; listed as SKI 396840): None of the treatments were found to induce any signs of toxicity

SMILES: COc1ccc(C(=O)c2coc3c2C(=O)C(=O)C(Cl)=C3)cc1 [SKC-BF-04, 6-Chloro-3-(4-methoxybenzoyl)-benzofuran-4,5-dione]
IC50 [3]: 40 µM
EcPDF %I 10uM [4]: -6 %I

SMILES: O=C1C=Cc2occ(C(=O)c3ccccc3)c2C1=O [SKC-BF-01, 3-Benzoyl-benzofuran-4,5-dione]
APN %I 100uM [5]: 5 %I
EcPDF %I 100uM [6]: 32 %I
IC50 ([7]; dose response, 12 point doubling dilutions, upper limit 100 μM): 59 µM
selectivity for HsPDF in a panel of metalloproteases ([7]; panel HsPDF, EcPDF, APN and MMP-1): most selective HsPDF inhibitors

IC50 [1]: 0.69 µM
SMILES: O=C1C(=O)c2c(C(=O)c3ccc(C(=O)O)cc3)coc2C(Cl)=C1Cl [SKI 417519, 4-(6,7-dichloro-4,5-dioxo-4,5-dihydrobenzofuran-3-carbonyl)benzoic acid]
activity against the cell lines of the panel, second generation [2]: not active toward most of the cell lines tested
